Test results taken from the kinase profiling compilation of Christmann-Franck et al. (2016).

Legend:
Assay in all cases: KINOMEscan competition binding
Conditions in all cases: compound 10.0 µM
[1] = target: JAK1 JH1 catalytic (human) (UniProt P23458)
DCLK2 (human) = DCLK2 (human) (UniProt Q8N568)
TEK (human) = TEK (human) (UniProt Q02763)
CDC42BPA (human) = CDC42BPA (human) (UniProt Q5VT25)
ULK2 (human) = ULK2 (human) (UniProt Q8IYT8)
CDK18 (human) = CDK18 (human) (UniProt Q07002)
MAPK3 (human) = MAPK3 (human) (UniProt P27361)
ULK1 (human) = ULK1 (human) (UniProt O75385)
SGK110 (human) = SGK110 (human) (UniProt P0C264)
CSNK1G1 (human) = CSNK1G1 (human) (UniProt Q9HCP0)
STK32B (human) = STK32B (human) (UniProt Q9NY57)
STK3 (human) = STK3 (human) (UniProt Q13188)
AXL (human) = AXL (human) (UniProt P30530)
CIT (human) = CIT (human) (UniProt O14578)
AAK1 (human) = AAK1 (human) (UniProt Q2M2I8)
MAP3K7 (human) = MAP3K7 (human) (UniProt O43318)
ITK (human) = ITK (human) (UniProt Q08881)
IRAK3 (human) = IRAK3 (human) (UniProt Q9Y616)
EPHA5 (human) = EPHA5 (human) (UniProt P54756)
CDK8 (human) = CDK8 (human) (UniProt P49336)
MAP2K6 (human) = MAP2K6 (human) (UniProt P52564)
MARK2 (human) = MARK2 (human) (UniProt Q7KZI7)
IKBKE (human) = IKBKE (human) (UniProt Q14164)
MLTK (human) = MLTK (human) (UniProt Q9NYL2)
BRSK2 (human) = BRSK2 (human) (UniProt Q8IWQ3)
WEE1 (human) = WEE1 (human) (UniProt P30291)
MAP3K4 (human) = MAP3K4 (human) (UniProt Q9Y6R4)
PTK6 (human) = PTK6 (human) (UniProt Q13882)
[2] = system: FLT3 (human), P36888 [N841I]
DAPK2 (human) = DAPK2 (human) (UniProt Q9UIK4)
TEC (human) = TEC (human) (UniProt P42680)
PAK4 (human) = PAK4 (human) (UniProt O96013)
EPHA6 (human) = EPHA6 (human) (UniProt Q9UF33)
NTRK3 (human) = NTRK3 (human) (UniProt Q16288)
PDPK1 (human) = PDPK1 (human) (UniProt O15530)
WEE2 (human) = WEE2 (human) (UniProt P0C1S8)
MKNK1 (human) = MKNK1 (human) (UniProt Q9BUB5)
ADCK4 (human) = ADCK4 (human) (UniProt Q96D53)
RIPK2 (human) = RIPK2 (human) (UniProt O43353)
[3] = system: FLT3 (human), P36888 [ITD]

Chain of SGK110 (human) (P0C264 whole entry, looked up): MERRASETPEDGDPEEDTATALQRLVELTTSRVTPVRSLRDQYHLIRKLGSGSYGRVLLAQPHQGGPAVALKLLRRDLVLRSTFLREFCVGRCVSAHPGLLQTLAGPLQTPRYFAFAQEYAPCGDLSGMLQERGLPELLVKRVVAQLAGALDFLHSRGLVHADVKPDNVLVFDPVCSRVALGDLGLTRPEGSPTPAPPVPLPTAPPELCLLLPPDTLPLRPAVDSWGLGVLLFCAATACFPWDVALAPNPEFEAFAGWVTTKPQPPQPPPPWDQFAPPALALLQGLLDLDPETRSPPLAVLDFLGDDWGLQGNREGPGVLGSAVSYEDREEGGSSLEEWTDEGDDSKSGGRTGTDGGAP
Chain of RIPK2 (human) (O43353 whole entry, looked up): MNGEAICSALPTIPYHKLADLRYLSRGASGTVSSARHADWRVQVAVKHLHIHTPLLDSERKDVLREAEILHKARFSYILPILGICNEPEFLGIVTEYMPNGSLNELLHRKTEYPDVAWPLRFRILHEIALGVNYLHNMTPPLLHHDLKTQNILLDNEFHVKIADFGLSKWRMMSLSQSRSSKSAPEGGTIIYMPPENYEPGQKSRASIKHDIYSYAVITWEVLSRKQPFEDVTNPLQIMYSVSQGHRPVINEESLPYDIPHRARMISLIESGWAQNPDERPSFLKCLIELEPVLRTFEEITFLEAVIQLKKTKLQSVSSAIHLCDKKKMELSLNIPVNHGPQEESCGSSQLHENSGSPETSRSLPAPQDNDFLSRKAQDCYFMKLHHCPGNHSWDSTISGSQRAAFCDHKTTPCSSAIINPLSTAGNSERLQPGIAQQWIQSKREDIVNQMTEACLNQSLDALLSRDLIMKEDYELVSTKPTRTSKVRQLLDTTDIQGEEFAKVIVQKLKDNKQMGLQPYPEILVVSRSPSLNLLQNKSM
Chain of IKBKE (human) (Q14164 whole entry, looked up): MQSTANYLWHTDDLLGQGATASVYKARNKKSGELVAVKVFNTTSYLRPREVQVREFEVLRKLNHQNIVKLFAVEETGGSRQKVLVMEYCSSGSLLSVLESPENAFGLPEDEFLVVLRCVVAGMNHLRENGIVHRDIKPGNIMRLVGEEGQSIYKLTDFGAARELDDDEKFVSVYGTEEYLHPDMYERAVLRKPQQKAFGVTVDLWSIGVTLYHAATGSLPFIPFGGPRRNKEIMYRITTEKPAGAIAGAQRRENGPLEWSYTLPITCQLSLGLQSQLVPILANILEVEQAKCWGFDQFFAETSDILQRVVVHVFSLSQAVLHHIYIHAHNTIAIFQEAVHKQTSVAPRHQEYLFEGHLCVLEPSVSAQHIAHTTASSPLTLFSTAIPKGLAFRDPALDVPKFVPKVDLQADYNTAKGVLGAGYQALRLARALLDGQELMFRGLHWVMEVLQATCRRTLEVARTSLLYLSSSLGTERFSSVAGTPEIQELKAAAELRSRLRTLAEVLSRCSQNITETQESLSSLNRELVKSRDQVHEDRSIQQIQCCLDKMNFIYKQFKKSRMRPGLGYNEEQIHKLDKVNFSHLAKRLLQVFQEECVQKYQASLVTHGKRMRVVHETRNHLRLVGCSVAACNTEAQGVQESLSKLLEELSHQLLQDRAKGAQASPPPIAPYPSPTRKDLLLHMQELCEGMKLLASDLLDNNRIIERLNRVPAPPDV
Chain of EPHA5 (human) (P54756 whole entry, looked up): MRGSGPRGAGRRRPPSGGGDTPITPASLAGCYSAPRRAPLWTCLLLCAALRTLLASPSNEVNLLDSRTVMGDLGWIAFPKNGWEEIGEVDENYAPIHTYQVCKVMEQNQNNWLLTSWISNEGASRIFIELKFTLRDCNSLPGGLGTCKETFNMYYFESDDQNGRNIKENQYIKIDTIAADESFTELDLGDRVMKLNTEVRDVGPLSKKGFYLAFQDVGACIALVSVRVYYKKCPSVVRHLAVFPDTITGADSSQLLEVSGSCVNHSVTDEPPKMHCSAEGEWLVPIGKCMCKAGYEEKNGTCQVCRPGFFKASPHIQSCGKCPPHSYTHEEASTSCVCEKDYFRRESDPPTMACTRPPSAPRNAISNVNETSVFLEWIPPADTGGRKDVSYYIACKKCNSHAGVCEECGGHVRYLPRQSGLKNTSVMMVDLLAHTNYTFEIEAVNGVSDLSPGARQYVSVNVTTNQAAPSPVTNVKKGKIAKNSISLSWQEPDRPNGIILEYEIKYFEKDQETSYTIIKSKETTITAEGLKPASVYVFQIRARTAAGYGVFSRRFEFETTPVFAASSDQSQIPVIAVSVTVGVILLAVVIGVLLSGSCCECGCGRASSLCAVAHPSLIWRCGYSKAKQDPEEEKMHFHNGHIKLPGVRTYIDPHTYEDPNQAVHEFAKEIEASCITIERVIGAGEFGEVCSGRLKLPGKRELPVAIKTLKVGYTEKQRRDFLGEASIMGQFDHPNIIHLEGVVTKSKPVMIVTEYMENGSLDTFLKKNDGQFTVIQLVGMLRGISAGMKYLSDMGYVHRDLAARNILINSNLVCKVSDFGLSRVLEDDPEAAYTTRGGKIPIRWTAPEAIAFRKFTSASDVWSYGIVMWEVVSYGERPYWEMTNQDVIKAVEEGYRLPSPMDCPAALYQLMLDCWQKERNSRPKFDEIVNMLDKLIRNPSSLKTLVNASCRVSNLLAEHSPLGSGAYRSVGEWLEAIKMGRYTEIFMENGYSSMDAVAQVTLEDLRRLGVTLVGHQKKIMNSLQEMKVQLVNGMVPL
Chain of ADCK4 (human) (Q96D53 whole entry, looked up): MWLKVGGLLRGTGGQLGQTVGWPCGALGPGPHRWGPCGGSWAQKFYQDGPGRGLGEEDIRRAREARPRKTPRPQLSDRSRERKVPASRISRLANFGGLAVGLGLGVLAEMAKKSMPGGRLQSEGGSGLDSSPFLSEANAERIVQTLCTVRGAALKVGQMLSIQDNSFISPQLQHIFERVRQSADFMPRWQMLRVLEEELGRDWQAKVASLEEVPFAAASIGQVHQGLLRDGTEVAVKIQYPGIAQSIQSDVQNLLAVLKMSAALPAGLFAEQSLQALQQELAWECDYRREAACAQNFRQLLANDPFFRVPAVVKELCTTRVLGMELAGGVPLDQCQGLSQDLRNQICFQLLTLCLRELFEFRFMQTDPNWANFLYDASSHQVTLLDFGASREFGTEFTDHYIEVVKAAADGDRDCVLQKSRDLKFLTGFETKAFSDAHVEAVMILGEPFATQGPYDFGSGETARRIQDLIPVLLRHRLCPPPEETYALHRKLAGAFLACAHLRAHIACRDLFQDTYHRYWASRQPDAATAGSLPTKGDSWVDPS
Chain of MLTK (human) (Q9NYL2 whole entry, looked up): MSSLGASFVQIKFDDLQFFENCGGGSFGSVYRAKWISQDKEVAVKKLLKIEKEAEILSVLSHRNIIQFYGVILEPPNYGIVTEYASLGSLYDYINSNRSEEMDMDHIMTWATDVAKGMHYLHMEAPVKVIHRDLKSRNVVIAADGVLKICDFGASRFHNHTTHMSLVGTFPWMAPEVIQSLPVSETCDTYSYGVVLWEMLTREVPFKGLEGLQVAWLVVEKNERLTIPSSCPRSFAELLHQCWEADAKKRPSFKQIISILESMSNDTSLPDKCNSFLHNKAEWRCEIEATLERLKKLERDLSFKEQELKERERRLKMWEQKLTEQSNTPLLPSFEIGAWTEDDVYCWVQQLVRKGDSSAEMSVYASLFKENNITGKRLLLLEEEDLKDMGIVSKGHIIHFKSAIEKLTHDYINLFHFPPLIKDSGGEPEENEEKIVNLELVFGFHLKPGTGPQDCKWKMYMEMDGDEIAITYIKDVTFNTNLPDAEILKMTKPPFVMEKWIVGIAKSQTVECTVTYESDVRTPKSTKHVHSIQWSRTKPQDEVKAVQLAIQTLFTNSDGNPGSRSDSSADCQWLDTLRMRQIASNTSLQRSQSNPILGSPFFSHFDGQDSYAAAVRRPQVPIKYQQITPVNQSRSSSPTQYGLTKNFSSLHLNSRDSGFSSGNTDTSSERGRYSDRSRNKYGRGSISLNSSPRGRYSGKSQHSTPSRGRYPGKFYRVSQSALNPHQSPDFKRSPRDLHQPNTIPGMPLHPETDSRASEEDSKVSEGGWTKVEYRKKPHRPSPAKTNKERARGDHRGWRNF
Chain of EPHA6 (human) (Q9UF33 whole entry, looked up): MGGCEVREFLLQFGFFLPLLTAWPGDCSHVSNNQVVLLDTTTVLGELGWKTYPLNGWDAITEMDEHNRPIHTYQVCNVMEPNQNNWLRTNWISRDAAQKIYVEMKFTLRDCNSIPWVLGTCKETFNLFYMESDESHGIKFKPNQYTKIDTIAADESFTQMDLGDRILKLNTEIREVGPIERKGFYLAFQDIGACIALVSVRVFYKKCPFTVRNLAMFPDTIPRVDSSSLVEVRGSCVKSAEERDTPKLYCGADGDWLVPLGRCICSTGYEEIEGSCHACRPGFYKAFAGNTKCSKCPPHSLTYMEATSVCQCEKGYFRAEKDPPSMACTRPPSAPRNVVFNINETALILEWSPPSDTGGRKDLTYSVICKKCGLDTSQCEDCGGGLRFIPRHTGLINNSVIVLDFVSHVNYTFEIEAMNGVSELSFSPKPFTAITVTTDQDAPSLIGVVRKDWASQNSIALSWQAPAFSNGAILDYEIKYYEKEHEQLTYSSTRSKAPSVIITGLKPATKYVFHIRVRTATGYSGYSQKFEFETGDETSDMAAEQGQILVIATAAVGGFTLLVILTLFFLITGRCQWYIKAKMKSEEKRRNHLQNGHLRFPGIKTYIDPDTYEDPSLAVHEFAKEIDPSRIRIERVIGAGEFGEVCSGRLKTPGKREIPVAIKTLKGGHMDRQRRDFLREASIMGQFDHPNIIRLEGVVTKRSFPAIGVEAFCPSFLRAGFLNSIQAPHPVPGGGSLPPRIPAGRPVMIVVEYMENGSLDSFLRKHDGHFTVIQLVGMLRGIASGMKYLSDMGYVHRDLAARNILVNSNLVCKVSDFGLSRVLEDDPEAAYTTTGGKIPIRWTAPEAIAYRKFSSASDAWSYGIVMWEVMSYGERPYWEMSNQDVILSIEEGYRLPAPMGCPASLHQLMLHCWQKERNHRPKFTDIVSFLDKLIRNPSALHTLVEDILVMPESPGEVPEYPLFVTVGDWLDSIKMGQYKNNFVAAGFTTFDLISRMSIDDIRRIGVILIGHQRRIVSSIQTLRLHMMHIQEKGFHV

Row | kinase still bound, per cent of control [1] [%] | kinase still bound, per cent of control (DCLK2 (human)) [%] | kinase still bound, per cent of control (TEK (human)) [%] | kinase still bound, per cent of control (CDC42BPA (human)) [%] | kinase still bound, per cent of control (ULK2 (human)) [%] | kinase still bound, per cent of control (CDK18 (human)) [%] | kinase still bound, per cent of control (MAPK3 (human)) [%] | kinase still bound, per cent of control (ULK1 (human)) [%] | kinase still bound, per cent of control (SGK110 (human)) [%] | kinase still bound, per cent of control (CSNK1G1 (human)) [%] | kinase still bound, per cent of control (STK32B (human)) [%] | kinase still bound, per cent of control (STK3 (human)) [%] | kinase still bound, per cent of control (AXL (human)) [%] | kinase still bound, per cent of control (CIT (human)) [%] | kinase still bound, per cent of control (AAK1 (human)) [%] | kinase still bound, per cent of control (MAP3K7 (human)) [%] | kinase still bound, per cent of control (ITK (human)) [%] | kinase still bound, per cent of control (EPHA5 (human)) [%] | kinase still bound, per cent of control (CDK8 (human)) [%] | kinase still bound, per cent of control (MAP2K6 (human)) [%] | Structure (SMILES) | further results
1 | 100 | 100 | 100 | 100 | 100 | 100 | 100 | 100 | 100 | 100 | 100 | 100 | 100 | 100 | 100 | 100 | 100 | 1.1 | 100 | 100 | Cc1ccc(C(=O)Nc2cccc(C(F)(F)F)c2)cc1Nc1cncc(C(N)=O)c1 | kinase still bound, per cent of control (IRAK3 (human)): 100%; kinase still bound, per cent of control (MARK2 (human)): 100%; kinase still bound, per cent of control (IKBKE (human)): 100%; kinase still bound, per cent of control (MLTK (human)): 6.9%; kinase still bound, per cent of control (BRSK2 (human)): 100%; kinase still bound, per cent of control (WEE1 (human)): 100%; kinase still bound, per cent of control (MAP3K4 (human)): 100%; kinase still bound, per cent of control (PTK6 (human)): 100%; kinase still bound, per cent of control [2]: 100%; kinase still bound, per cent of control (DAPK2 (human)): 100%; kinase still bound, per cent of control (TEC (human)): 100%; kinase still bound, per cent of control (PAK4 (human)): 100%; kinase still bound, per cent of control (EPHA6 (human)): 100%; kinase still bound, per cent of control (NTRK3 (human)): 15%; kinase still bound, per cent of control (PDPK1 (human)): 100%; kinase still bound, per cent of control (WEE2 (human)): 100%; kinase still bound, per cent of control (MKNK1 (human)): 100%; kinase still bound, per cent of control (ADCK4 (human)): 100%; kinase still bound, per cent of control (RIPK2 (human)): 100%; kinase still bound, per cent of control [3]: 100%
2 | 100 | 100 | 100 | 100 | 100 | 100 | 100 | 100 | 100 | 100 | 100 | 100 | 100 | 100 | 100 | 100 | 100 | 100 | 100 | 100 | COc1cc(C(=O)NC2CCN(C)CC2)ccc1Nc1ncc2c(n1)N(C1CCCC1)CCC(=O)N2C(C)C | kinase still bound, per cent of control (IRAK3 (human)): 100%; kinase still bound, per cent of control (MARK2 (human)): 100%; kinase still bound, per cent of control (IKBKE (human)): 100%; kinase still bound, per cent of control (MLTK (human)): 100%; kinase still bound, per cent of control (BRSK2 (human)): 0%; kinase still bound, per cent of control (WEE1 (human)): 100%; kinase still bound, per cent of control (MAP3K4 (human)): 100%; kinase still bound, per cent of control (PTK6 (human)): 100%; kinase still bound, per cent of control [2]: 100%; kinase still bound, per cent of control (DAPK2 (human)): 100%; kinase still bound, per cent of control (TEC (human)): 100%; kinase still bound, per cent of control (PAK4 (human)): 100%; kinase still bound, per cent of control (EPHA6 (human)): 100%; kinase still bound, per cent of control (NTRK3 (human)): 100%; kinase still bound, per cent of control (PDPK1 (human)): 100%; kinase still bound, per cent of control (WEE2 (human)): 100%; kinase still bound, per cent of control (MKNK1 (human)): 100%; kinase still bound, per cent of control (ADCK4 (human)): 100%; kinase still bound, per cent of control (RIPK2 (human)): 100%; kinase still bound, per cent of control [3]: 100%

Row | Structure (SMILES) | kinase still bound, per cent of control [1] [%] | kinase still bound, per cent of control (DCLK2 (human)) [%] | kinase still bound, per cent of control (TEK (human)) [%] | kinase still bound, per cent of control (CDC42BPA (human)) [%] | kinase still bound, per cent of control (ULK2 (human)) [%] | kinase still bound, per cent of control (CDK18 (human)) [%] | kinase still bound, per cent of control (MAPK3 (human)) [%] | kinase still bound, per cent of control (ULK1 (human)) [%] | kinase still bound, per cent of control (SGK110 (human)) [%] | kinase still bound, per cent of control (CSNK1G1 (human)) [%] | kinase still bound, per cent of control (STK32B (human)) [%] | kinase still bound, per cent of control (STK3 (human)) [%] | kinase still bound, per cent of control (AXL (human)) [%] | kinase still bound, per cent of control (CIT (human)) [%] | kinase still bound, per cent of control (AAK1 (human)) [%] | kinase still bound, per cent of control (MAP3K7 (human)) [%] | kinase still bound, per cent of control (ITK (human)) [%] | kinase still bound, per cent of control (EPHA5 (human)) [%] | kinase still bound, per cent of control (CDK8 (human)) [%] | kinase still bound, per cent of control (MAP2K6 (human)) [%] | further results
3 | CCCS(=O)(=O)Nc1ccc(F)c(C(=O)c2c[nH]c3ncc(-c4ccc(Cl)cc4)cc23)c1F | 28 | 100 | 62 | 80 | 100 | 100 | 100 | 93 | 100 | 100 | 100 | 1.9 | 8.4 | 30 | 100 | 69 | 100 | 98 | 4.6 | 57 | kinase still bound, per cent of control (MARK2 (human)): 69%; kinase still bound, per cent of control (IKBKE (human)): 100%; kinase still bound, per cent of control (MLTK (human)): 7.4%; kinase still bound, per cent of control (BRSK2 (human)): 100%; kinase still bound, per cent of control (WEE1 (human)): 100%; kinase still bound, per cent of control (MAP3K4 (human)): 63%; kinase still bound, per cent of control (PTK6 (human)): 0.75%; kinase still bound, per cent of control (DAPK2 (human)): 95%; kinase still bound, per cent of control (TEC (human)): 100%; kinase still bound, per cent of control (PAK4 (human)): 86%; kinase still bound, per cent of control (EPHA6 (human)): 100%; kinase still bound, per cent of control (NTRK3 (human)): 65%; kinase still bound, per cent of control (PDPK1 (human)): 70%; kinase still bound, per cent of control (WEE2 (human)): 100%; kinase still bound, per cent of control (MKNK1 (human)): 70%; kinase still bound, per cent of control (ADCK4 (human)): 100%; kinase still bound, per cent of control (RIPK2 (human)): 4.3%
